For 17 compounds, EC50 and Ki results are on record in patent US11318137B2, “Quinazoline compounds as modulators of Ras signaling” (VANDERBILT UNIVERSITY, priority 2017, dated 2022).

For assay [1], the target named is T1, SOS-mediated nucleotide exchange on Ras (Homo sapiens, UniProt Q07889).
T1 sequence (Q07889 1-1333): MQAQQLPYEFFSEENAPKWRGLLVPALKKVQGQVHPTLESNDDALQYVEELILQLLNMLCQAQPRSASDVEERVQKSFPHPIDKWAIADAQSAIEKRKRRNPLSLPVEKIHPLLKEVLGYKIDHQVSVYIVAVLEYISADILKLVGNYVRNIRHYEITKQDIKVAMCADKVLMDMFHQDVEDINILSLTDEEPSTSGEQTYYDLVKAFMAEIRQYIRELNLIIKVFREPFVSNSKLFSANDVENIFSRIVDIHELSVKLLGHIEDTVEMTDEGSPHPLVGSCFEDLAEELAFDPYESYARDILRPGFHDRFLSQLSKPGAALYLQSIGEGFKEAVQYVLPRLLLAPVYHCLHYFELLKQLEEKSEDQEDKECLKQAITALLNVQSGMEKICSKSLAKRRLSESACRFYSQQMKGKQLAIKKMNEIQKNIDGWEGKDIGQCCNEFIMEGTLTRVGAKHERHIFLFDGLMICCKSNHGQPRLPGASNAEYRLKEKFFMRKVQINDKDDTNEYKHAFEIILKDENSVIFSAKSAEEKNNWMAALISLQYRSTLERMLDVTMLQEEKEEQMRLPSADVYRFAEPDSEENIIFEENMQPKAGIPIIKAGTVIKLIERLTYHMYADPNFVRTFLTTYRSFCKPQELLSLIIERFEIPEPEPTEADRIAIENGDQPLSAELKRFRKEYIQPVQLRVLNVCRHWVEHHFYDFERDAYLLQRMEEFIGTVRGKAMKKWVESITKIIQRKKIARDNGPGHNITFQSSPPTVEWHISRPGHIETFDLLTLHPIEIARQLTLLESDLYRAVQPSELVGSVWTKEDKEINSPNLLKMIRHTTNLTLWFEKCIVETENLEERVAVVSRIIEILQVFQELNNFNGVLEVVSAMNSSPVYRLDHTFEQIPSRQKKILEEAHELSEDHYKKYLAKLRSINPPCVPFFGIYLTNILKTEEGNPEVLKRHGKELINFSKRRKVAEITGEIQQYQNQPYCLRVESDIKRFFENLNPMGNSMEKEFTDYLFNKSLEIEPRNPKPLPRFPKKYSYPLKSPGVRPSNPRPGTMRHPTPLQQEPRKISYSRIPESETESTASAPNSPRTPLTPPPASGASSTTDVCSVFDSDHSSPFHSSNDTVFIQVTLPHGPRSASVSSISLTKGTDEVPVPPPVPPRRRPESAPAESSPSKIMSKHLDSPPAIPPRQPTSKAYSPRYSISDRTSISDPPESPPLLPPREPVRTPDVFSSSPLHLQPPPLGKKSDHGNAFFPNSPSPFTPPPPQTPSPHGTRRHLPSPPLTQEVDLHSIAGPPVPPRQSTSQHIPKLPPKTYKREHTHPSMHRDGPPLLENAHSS
The experiment in a line: SOS-mediated nucleotide exchange on Ras (BODIPY-GDP fluorescence). The note with it: Ras loaded with BODIPY-GDP, GTP and SOS added; EC50 from derived exchange rates. It is filed as biochemical. On the procedure:
A. SOS-Mediated Nucleotide Exchange on Ras
Compounds of the present invention were tested for their ability to modify the rate at which Ras exchanges a labeled nucleotide guanosine diphosphate (GDP) analog for guanosine triphosphate (GTP). Briefly, test compounds, then GTP and the Ras GEF SOS (Son of Sevenless) are added to a buffered solution containing Ras protein loaded with BODIPY-GDP. Changes in fluorescence indicating exchange of the labeled GDP for GTP are monitored over time. Raw fluorescence data was fit to a single exponential decay function and derived rates were plotted as mean values. EC50 values were calculated by plotting mean derived rates as a function of compound concentration and fit using a four-parameter dose-response curve. Full assay details are disclosed in: Burns, M. C.; Sun, Q.; Daniels, R. N.; Camper, D. V.; Kennedy, J. P.; Phan, J.; Olejniczak, E. O.; Lee, T.; Waterson, A. G.; Rossanese, O. W.; Fesik, S. W. “Approach for targeting Ras with small molecules that activate SOS-mediated nucleotide exchange” Proc. Natl. Acad. Sci. 2014; 11(9): 3401-3406. PMCID: PMC3948241.

The target in assay [2] is T2, Son of Sevenless (SOS) (Homo sapiens, UniProt Q07889).
T2 sequence (Q07889 564-1049 limits assumed): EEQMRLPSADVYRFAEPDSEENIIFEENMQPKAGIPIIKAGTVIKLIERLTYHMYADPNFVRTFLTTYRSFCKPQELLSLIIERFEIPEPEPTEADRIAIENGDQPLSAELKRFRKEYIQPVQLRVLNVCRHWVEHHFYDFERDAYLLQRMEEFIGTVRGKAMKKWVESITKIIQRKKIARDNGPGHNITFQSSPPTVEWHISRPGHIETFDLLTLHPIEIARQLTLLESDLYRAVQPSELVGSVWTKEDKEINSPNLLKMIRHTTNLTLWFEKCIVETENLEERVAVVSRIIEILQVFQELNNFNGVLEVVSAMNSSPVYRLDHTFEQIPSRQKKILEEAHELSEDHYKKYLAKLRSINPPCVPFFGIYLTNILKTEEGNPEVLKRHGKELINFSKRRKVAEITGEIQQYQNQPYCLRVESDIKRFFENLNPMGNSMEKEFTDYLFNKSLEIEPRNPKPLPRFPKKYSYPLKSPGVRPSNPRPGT
The assay can be described thus: Binding to SOS, fluorescence polarization anisotropy (FPA) displacement of FITC-conjugated probe. The note with it: binding affinity calculated from IC50 of FITC-probe displacement, read-out: Binding affinities (binding affinity to SOS). On the procedure: Compounds of the present invention were tested for their ability to the Ras guanine exchange factor (GEF) Son of Sevenless (SOS). Binding to SOS was measured using a Fluorescence polarization anisotropy (FPA) assay that assesses the ability of a test compound to displace a fluorescent FITC-conjugated compound. Briefly, the labeled probe compound is incubated with SOS in buffer. Changes in anisotropy indicative of displacement of the labeled probe for a test compound are assessed over a dose range of test compound. Data was analyzed by plotting fluorescence anisotropy values as a function of compound concentration. IC50 values were determined using a four-parameter dose-response (variable slope) and binding affinities were calculated from this IC50 value. This assay is performed in a method analogous to the assay disclosed in: Burns, M. C.; Sun, Q.; Daniels, R. N.; Camper, D. V.; Kennedy, J. P.; Phan, J.; Olejniczak, E. O.; Lee, T.; Waterson, A. G.; Rossanese, O. W.; Fesik, S. W. “Approach for targeting Ras with small molecules that activate SOS-mediated nucleotide exchange” Proc. Natl. Acad. Sci. 2014; 11(9): 3401-3406. PMCID: PMC3948241.

In assay [1], `CC[C@@H](Nc1nc(Nc2ccc(F)c(Cl)c2)nc2ccccc12)C1CCC1` [Example 42, (R)—N^2-(3-chloro-4-fluorophenyl)-N^4-(1-cyclobutylpropyl)quinazoline-2,4-diamine] had a concentration giving a half-maximal response (EC50) of 1 to 5 µM. For the same compound, in assay [2], the Ki was more than 5 µM.

For the compound `C[C@@H](Nc1nc(Nc2ccc(F)c(Cl)c2)nc2c(N3CCNCC3)cccc12)C1CC1` [Example 52, (R)—N^2-(3-chloro-4-fluorophenyl)-N^4-(1-cyclopropylethyl)-8-(piperazin-1-yl)quinazoline-2,4-diamine], the EC50 in assay [1] is 1 to 5 µM. Moreover, the Ki in assay [2] was 1 to 5 µM.

`C[C@@H](Nc1nc(Nc2ccc(F)c(Cl)c2)nc2c(NCCCN(C)C)cccc12)C1CC1` [Example 53, (R)—N^2-(3-chloro-4-fluorophenyl)-N^4-(1-cyclopropylethyl)-N^8-(3-(dimethylamino)propyl)quinazoline-2,4,8-triamine] showed an EC50 in assay [1] of 5 to 30 µM. For the same compound, the Ki in assay [2] is more than 5 µM.

Consider `C[C@@H](Nc1nc(Nc2ccc(F)c(Cl)c2)nc2c(NCCO)cccc12)C1CC1` [Example 54, (R)-2-((2-((3-chloro-4-fluorophenyl)amino)-4-((1-cyclopropylethyl)amino)quinazolin-8-yl)amino)ethan-1-ol], for which the 50% effective concentration (EC50) in assay [1] is more than 30 µM. Moreover, the Ki in assay [2] is more than 5 µM.

In turn, `C[C@@H](Nc1nc(Nc2ccc(F)c(Cl)c2)nc2c(C#N)cccc12)C1CC1` [Example 55, (R)-2-((3-chloro-4-fluorophenyl)amino)-4-((1-cycloprprpylethyl)amino)quinazoline-8-carbonitrile] returned an EC50 in assay [1] of more than 30 µM. In addition, the Ki in assay [2] is more than 5 µM.

With `C[C@@H](Nc1nc(Nc2ccc(F)c(Cl)c2)nc2c(CN)cccc12)C1CC1` [Example 56, (R)-8-(aminomethyl)-N^2-(3-chloro-4-fluorophenyl)-N^4-(1-cyclopropylethyl)quinazoline-2,4-diamine], in assay [1], the EC50 fell in the range of 1 to 5 µM. Further, the Ki in assay [2] was more than 5 µM.

`C[C@@H](Nc1nc(Nc2ccc(F)c(Cl)c2)nc2c(CCN)cccc12)C1CC1` [Example 60, (R)-8-(2-aminoethyl)-N^2-(3-chloro-4-fluorophenyl)-N^4-(1-cyclopropylethyl)quinazoline-2,4-diamine] registered a 50% effective concentration (EC50) in assay [1] of 1 to 5 µM. Besides, the Ki in assay [2] was 1 to 5 µM.

`C[C@@H](Nc1nc(Nc2ccc(F)c(Cl)c2)nc2c(C3=CCNCC3)cccc12)C1CC1` [Example 62, (R)—N^2-(3-chloro-4-fluorophenyl)-N^4-(1-cyclopropylethyl)-8-(1,2,3,6-tetrahydropyridin-4-yl)quinazoline-2,4-diamine] registered an EC50 in assay [1] of less than 1 µM. Also, the Ki in assay [2] is 1 to 5 µM.

In the case of `C[C@@H](Nc1nc(NCCc2c[nH]cn2)nc2c(C3=CCNCC3)cccc12)C1CC1` [Example 63, (R)—N^2-(2-(1H-imidazol-4-yl)ethyl)-N^4-(1-cyclopropylethyl)-8-(1,2,3,6-tetrahydropyridin-4-yl)quinazoline-2,4-diamine], the EC50 in assay [1] is more than 30 µM. Further, the Ki in assay [2] is more than 5 µM.

The compound `C[C@@H](Nc1nc(Nc2ccc(F)c(Cl)c2)nc2c(NCCN)cccc12)C1CC1` [Example 65, (R)—N^8-(2-aminoethyl)-N^2-(3-chloro-4-fluorophenyl)-N^4-(1-cyclopropylethyl)quinazoline-2,4,8-triamine] had an EC50 in assay [1] of 5 to 30 µM. For the same compound, in assay [2], the Ki is more than 5 µM.

In turn, `C[C@@H](Nc1nc(Nc2ccc(F)c(Cl)c2)nc2c(NCCCN)cccc12)C1CC1` [Example 66, (R)—N^8-(3-aminopropyl)-N^2-(3-chloro-4-fluorophenyl)-N^4-(1-cyclopropylethyl)quinazoline-2,4,8-triamine] came in with an EC50 in assay [1] of 5 to 30 µM. Further, the Ki in assay [2] is more than 5 µM.

In assay [1], `C[C@@H](Nc1nc(Nc2ccc(F)c(Cl)c2)nc2c(NCCN(C)C)cccc12)C1CC1` [Example 67, (R)—N^2-(3-chloro-4-fluorophenyl)-N^4-(1-cyclopropylethyl)-N8-(2-(dimethylamino)ethyl)quinazoline-2,4,8-triamine] showed an EC50 of 5 to 30 µM. Further, the Ki in assay [2] was more than 5 µM.

Turning to `NCCc1cccc2c(NC(C3CC3)C3CC3)nc(NCC3CCCCC3)nc12` [Example 74, 8-(2-aminoethyl)-N^2-(cyclohexylmethyl)-N^4-(dicyclopropylmethyl)quinazoline-2,4-diamine], the EC50 in assay [1] fell in the range of 1 to 5 µM. For the same compound, in assay [2], the Ki was 1 to 5 µM.

For the compound `C[C@@H](Nc1nc(NCC2CCCCC2)nc2c(CCN)cccc12)C1CC1` [Example 77], the EC50 in assay [1] fell in the range of 1 to 5 µM. Besides, the Ki in assay [2] was less than 1 µM.

Compound `C[C@@H](Nc1nc(NCC2CCCCC2)nc2c(C3=CCNCC3)cccc12)C(C)(C)C` [Example 81, (R)—N^2-(cyclohexylmethyl)-N^4-(3,3-dimethylbutan-2-yl)-8-(1,2,3,6-tetrahydropyridin-4-yl)quinazoline-2,4-diamine] displayed a 50% effective concentration (EC50) in assay [1] of 1 to 5 µM. The Ki in assay [2] was more than 5 µM.

With `C[C@@H](Nc1nc(Nc2ccc(F)c(Cl)c2)nc2c(CCN)cccc12)C(C)(C)C` [Example 82, (R)-8-(2-aminoethyl)-N^2-(3-chloro-4-fluorophenyl)-N^4-(3,3-dimethylbutan-2-yl)quinazoline-2,4-diamine], the EC50 in assay [1] lay in the range of 5 to 30 µM. Besides, the Ki in assay [2] was more than 5 µM.

`C[C@@H](Nc1nc(NCC2CCCCC2)nc2c(CCN)cccc12)C(C)(C)C` [Example 84, (R)-8-(2-aminoethyl)-N^2-(cyclohexylmethyl)-N^4-(3,3-dimethylbutan-2-yl)quinazoline-2,4-diamine] showed an EC50 in assay [1] of 5 to 30 µM. Besides, the Ki in assay [2] was 1 to 5 µM.
